Test results from US9109003B2, “Extraction method for Ilex kudingcha C. J. Tseng leaves, total saponins and use thereof” (Peking University, priority 2011, dated 2015).

System: ApoE−/− mice
Assay: Arteriosclerotic area of ApoE−/− mice aortic outflow tract
Type: in vivo
Details: high fat diet, vs HG (p<0.01), atorvastatin 50 mg/kg/d, total saponins 300 mg/kg/d, 6 weeks
Text: ApoE−/− mice were divided into four groups randomly by weight.
(1) Negative control group (CG): mice in this group were fed normally for 7 weeks, and intragastrically administrated with normal saline.
(2) High fat control group (HG): mice in this group were fed with high fat diet containing 0.2% cholesterol for 7 weeks, and intragastrically administrated with normal saline every day simultaneously.
(4) I. kudingcha total saponin therapeutic group (SG): the course of treatment is similar to that of AG, with the only difference between SG and AG lies in that the dosage of the total saponins from I. kudingcha is 300 mg/kg/d.
Effect of total saponins from I. kudingcha leaves on arteriosclerotic area of ApoE−/− mice aortic outflow tract is shown in FIG. 7.

CC(C)c1c(C(=O)Nc2ccccc2)c(-c2ccccc2)c(-c2ccc(F)cc2)n1CC[C@@H](O)C[C@@H](O)CC(=O)O [atorvastatin]
inhibition rate of formation of atherosclerotic plaque of aortic outflow tract: about 40%
